Data on two compounds can be found in US20070043034A1, “Chlorine Ion Uptake Modulators and Uses Thereof” (priority 2005, published 2007).

For experiment [1], the system named is Na^+-K^+-ATPase. Description: Activity-dependent change of Cli after postsynaptic action potential trains in CA1 pyramidal neurons. The settings on record: in the presence of DHO 10 μM; 20 Hz, 2.5 min trains; P=0.27. The format is cell-based, rat. How it is done:
The GABAB receptor antagonist CGP 55845A (1 μM) was included in the bath for most experiments. Bumetanide was stored as a 50 mM stock solution in ethanol at 4° C. and then diluted to 10 μM in ACSF. Dihydroouabain (10 μM) was diluted into ACSF and bath applied.
Action potentials in current-clamped neurons was invoked by injecting depolarizing current pulses (1.5 ms, 2 nA) at 20 Hz for 2.5 min.
Persistent increases in Cli and the GABA reversal potential have been observed following trains of action potentials. Action potential trains have long been known to cause long-lasting increases in the activity of Na^+—K^+-ATPase and corresponding changes in RMP. If NKCCl-mediated transport were thermodynamically limited, then the changes in ECl observed following action potential trains could be due to altered Na^+ and K^+ transmembrane gradients. Without being bound by any theory, it is believed that of the two cations, Nai would be most labile and would have the most influence on the Cli at which NKCCl-mediated transport reached equilibrium. Steady-state ECl and Cl^− transport kinetics were measured before and after a 20 Hz, 2.5 minute train of action potentials. […]
FIGS. 10A-10D show activity-dependent increases in Cli. FIG. 10A is a graph showing that following a train of action potentials in the recorded cell (20 Hz, 2.5 min), Cli reached a new steady state. […]

The subject of experiment [2] is KA-induced rat seizures. The experiment in a line: Kainic acid (KA) induced seizures in rat pups, EEG recording in vivo. Conditions: KA 2 mg/kg s.c. The source says:
Kainic Acid (KA) is a commonly used agent for creating an in vivo neonatal-like seizure model in rats for study. It is believed that this seizure model closely parallels human neonatal seizure disorders. KA, a glutamate receptor agonist, was used to induce neonatal-like seizures in postnatal (P) 7-12 day male Wistar rats. The rats were equipped with electrodes including recording and reference electrodes by standard means. There are many known methods for measuring parameters of seizures, in this example electrical signals were digitized using an analogue-to-digital converter for example a DigiData 1322A (Axon Instuments USA). The sampling interval can vary depending on the desired target interval. In this example, the sampling interval per signal was 200 […]s (5 kHz). For data analysis, several computer programs exist for capturing and analyzing these seizure parameters such as Clamp 9.2 (Axon Instruments, USA) and Origon 5.0 (Microcal Software, USA) used here. Interictal spikes were determined by typical means utilizing band-pass filtered raw data.
Many known methods exist for analyzing the power levels of different frequency components in a signal such as a signal recorded from a seizure episode. For example, power spectrum analysis can be performed after applying a Hamming window function. Unless otherwise indicated, power was calculated in 1-2 min time windows by integrating the root mean square value of the signal in frequency bands from 1 to 100 Hz (EEC band) and from 200 to 500 Hz (fast ripple band).
Pharmaceutical compositions of the present invention can be administered to seizure-induced rats to test the seizure modulatory properties of the pharmaceutical composition. In one exemplary method, the inhibition of NKCCl and its affect on seizures in rat pups was studied. Two days after implantation of recording electrodes, six P9-P10 rats received subcutaneous injection of KA (2 mg/kg) and six P9-10 control rats received subcutaneous 0.9% sodium chloride saline injections. 10-20 minutes after KA injection regular pattern of behavioral signs started, involving scratching-like movements of the hindpaws, loss of balance and turning on the side. Recurrent interictal and ictal electroencephalographic patterns occurred 20-80 minutes (61.2±10.4 min; mean±se) after KA injection in all rats from this experimental group (FIG. 4B). […] Interictal spikes usually occurred synchronously in the left and right hemispheres. Frequency of the interictal spikes was 1.43±0.06 Hz (n=23 seizures in 6 rats). Before transition to ictal patterns, interictal spikes were usually followed by fast ripple (100-500 Hz) and gamma-frequency oscillations (20-50 Hz). Tonic-clonic seizures were the most common type of seizures induced by KA in P9-10 rats. Ictal-tonic phase lasted 12.6±1.4 s (16 seizures in 5 rats). Population spikes of 18.7±1.2 Hz were characteristic of the tonic phase of KA-induced seizures (FIG. 4C). Tonic discharges were followed by clonic bursts (FIG. 4C). Large amplitude population spikes followed by 100-200 Hz ripples and 200-1200 ms gamma frequency after discharges characterized the clonic bursts. The mean duration of the clonic phase was 36.4±5 s (25 seizures in 6 rats). The ictal patterns were followed by postictal depression (FIG. 4 B-4C). During ictal EEG activity, motor activity consisted of scratching, jerky movements, turning on the side or on the back and frequent tail shaking. Five to ten recurrent seizures with an average interval 379±24.5 s were followed by periodic epileptiform discharges (PLEDs) (FIG. 4D).
In one exemplary experiment, a pharmaceutical composition of the present invention comprising bumetanide was compared to phenobarbital for effects on KA-induced rat seizures. Two days after implantation of recording electrodes, twenty-two P9-12 age-matched rats received subcutaneous injection with KA (2 mg/kg). […]

Experiment [3] concerns low-Mg^2+ induced recurrent seizures in the intact hippocampus. The experiment in a line: Low-Mg2+ ACSF induced recurrent seizures in the intact hippocampus in vitro. The settings on record: phenobarbital 100 μM. The format is cell-based, rat. The source says:
High expression level of the Na^+ K^+-2Cl^− (NKCCl) co-transporter in immature neurons causes the accumulation of chloride ions and a depolarized Cl^− equilibrium potential (ECl). This is linked to a higher seizure propensity and poor EEG response in neonates to the barbiturates and benzodiazepines, conventional anticonvulsant drugs that target Cl^−-permeable GABAA-receptor (GABAA-R) operated channels. […] Recurrent ictal-like seizures were induced by low-Mg^+ ACSF in intact hippocampal preparations in vitro. […] Bumetanide decreased both seizure frequency and seizure power.
FIGS. 11A-11C are graphs of low-Mg^2+πinduced recurrent seizures in the intact hippocampus in vitro. […] First and last seizures from 5 hour recording are shown on an expanded time scale. Right, corresponding power spectra in the 0.1-1000 Hz frequency band. […] Summary data are taken from ten hippocampi. […] Power of the first seizure in each recording was considered as 100%. Data are taken from 18 recordings in 10 preparations from P4-6 rats.
FIGS. 12A-12C are graphs showing low efficiency of phenobarbital in neonatal seizures. FIG. 12A is a graph showing extracellular field potential recording in the CA3 pyramidal cell layer in the intact hippocampus of a P5 rat. Continuous application of low-Mg^2+ ACSF induced recurrent tonic-clonic seizures. […] The right portion corresponds to power spectra in the 0.1-1000 Hz frequency range. […] Data are from ten experiments that were combined. FIG. 12C is a graph showing power of recurrent seizures before, during and after phenobarbital application. Power of the first seizure in each recording was considered as 100%. Seizures were not depressed by phenobarbital indicating its low efficiency.
FIGS. 13A-13C are graphs showing that alteration of Cl^−-transport by bumetanide enhanced efficacy of phenobarbital in neonatal seizures. FIG. 13A is a graph of extracellular field potential recording in the CA3 pyramidal cell layer in the intact hippocampus of a P5 rat. Application of low-Mg^2+ ACSF induced recurrent seizures. […] These are shown on an expanded time scale. The right portion of FIG. 13A is a power spectra of extracellular field potential activity before and during application of drugs. FIG. 13B is a graph showing inter-seizure intervals before, during and after application of drugs. In 75% of experiments seizures were abolished (ISI>120 min) by simultaneous application of phenobarbital and bumetanide. FIG. 13C is a graph showing power of recurrent seizures before, during and after simultaneous application of phenobarbital and bumetanide. Power of the first seizure in each recording was considered as 100%. Seizures were depressed by combination of drugs.
FIGS. 14A and 14B are graphs showing alteration of Cl^−-transport for early-life seizure therapy. […]

Where [4] appears, read: P9-12 rats, phenobarbital 25 mg/kg or bumetanide 0.1-0.2 mg/kg i.p.

With `C[C@@H]1O[C@@H](O[C@H]2C[C@@H](O)[C@]3(CO)[C@H]4[C@H](O)C[C@]5(C)[C@@H]([C@@H]6COC(=O)C6)CC[C@]5(O)[C@@H]4CC[C@]3(O)C2)[C@H](O)[C@H](O)[C@H]1O` [DHO, dihydroouabain], the “effect of action potential trains on Cli” value in experiment [1] is listed as “no effect”.

With `CCC1(c2ccccc2)C(=O)NC(=O)NC1=O` [phenobarbital], in experiment [2] (P9-12 rats, drug i.p. 10 min after KA (phenobarbital 25 mg/kg; bumetanide 0.1-0.2 mg/kg), 6 rats per group), the “animals with recurrent ictal-clonic activity / EEG clonic seizures” value is recorded as 100%. The “frequency of the ictal-tonic discharges” value in experiment [2] (P9-12 rats, phenobarbital 25 mg/kg i.p.) is on record as 14±3 Hz. Besides, in experiment [2] (setting [4]), the “duration of ictal-clonic phase” value was found to be 12 ± 1.1 s; the “duration of ictal-tonic phase” value turned out to be 5.2 ± 1.4 s; the “frequency of interictal spikes” value is reported as 1.56 ± 0.08 Hz; the “mean duration of single ictal episode (seizure including interictal and ictal phases)” value was 27.4 ± 2.6 s. In experiment [2] (setting [4]), the “mean interval between seizures” value was 241.3 ± 45.8 s and the “rats with ictal-tonic pattern / tonic-clonic seizures” value is reported as 33.3%. In experiment [2] (compared to pre-ictal baseline, phenobarbital 25 mg/kg or bumetanide 0.1-0.2 mg/kg i.p., saline control 444.7±136.3%), the “increase of power of EEG activity in the 20 minute window following seizure onset” value was determined as 248±40.8%. Further, the “experiments in which seizure frequency was significantly reduced” value in experiment [3] is reported as 70%. Besides, in experiment [3] (bumetanide 10 μM or both, 120 min application, intact hippocampus of P4-6 rats), the seizure power entry is given as “no significant effect”.
